According to US20070172843A1, “MEK interacting protein 1 as diagnostic and therapeutic target for breast cancer treatment and prevention” (priority 2005, published 2007):

Columns and labels:
Flag-ER = assay: Inducible 3' Flag-ER expression (ARGENT system) in stably transfected MCF-7 derivative, Western blotting; assay type: cell-based, human; settings: treated six hours, Western blot, FIG. 2
Excerpt: To tightly regulate expression of the Flag-ER gene, the Ariad “ARGENT” inducible gene expression system (25) (www.ariad.com) was used. This system allows for tight and specific regulation of a target gene.
To identify physiologically relevant ER-interacting proteins, the MCF-7 cell line was used. […] First, a stable derivative of MCF-7 in which target genes can be inducibly expressed was constructed. The construction of this cell line and an example of its use have been previously described (27). Next, the 5′ and 3′ Flag-ER constructs were subcloned into the target vector, and these constructs were stably transfected into the MCF-7 derivative described above. […] Stable transfectants containing either 3′ Flag-ER or empty vector were treated as indicated (in FIG. 2) for six hours, and lysates were analyzed by Western blotting (WB) with antibodies to ER, Flag, or Actin.

ER/MP1 complex = biological target: T1, ER/MP1 complex (Homo sapiens, UniProt P03372); settings: MCF-7 cells pre-treated in absence of E2, then ligand for 2 h; IP with ER or MP1 antibody; FIG. 4
T1 sequence (P03372 1-595): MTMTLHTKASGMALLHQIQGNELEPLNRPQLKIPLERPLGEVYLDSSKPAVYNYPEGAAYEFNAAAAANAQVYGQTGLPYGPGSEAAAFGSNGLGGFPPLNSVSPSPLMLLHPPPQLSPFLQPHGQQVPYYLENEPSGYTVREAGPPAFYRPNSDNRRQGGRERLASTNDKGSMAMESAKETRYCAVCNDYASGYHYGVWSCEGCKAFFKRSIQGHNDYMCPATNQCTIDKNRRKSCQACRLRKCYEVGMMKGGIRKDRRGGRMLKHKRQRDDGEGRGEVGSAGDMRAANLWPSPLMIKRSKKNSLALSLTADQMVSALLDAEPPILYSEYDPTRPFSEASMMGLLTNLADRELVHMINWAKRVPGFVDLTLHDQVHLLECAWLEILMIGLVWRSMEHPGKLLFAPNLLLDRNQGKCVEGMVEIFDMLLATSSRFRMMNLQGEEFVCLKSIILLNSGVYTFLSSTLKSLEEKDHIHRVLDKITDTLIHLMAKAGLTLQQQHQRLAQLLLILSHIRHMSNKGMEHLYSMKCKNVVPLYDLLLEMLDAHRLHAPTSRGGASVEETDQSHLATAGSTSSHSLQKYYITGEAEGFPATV
Method: One limitation to inducible expression systems is that proteins are expressed at very high levels, and complexes may form that are not physiologically relevant. […] Cell lysates were prepared and precipitated with either 0-ER (Labvision/NeoMarker) or 0-MP1 (Santa Cruz) antibody and protein G agarose beads.

ER = biological target: T2, ER (Homo sapiens, UniProt P03372); settings: MCF-7 cells, 24 h in medium lacking E2, ligand for 3 h; MP1 vs empty vector; FIG. 5
T2 sequence (P03372 1-595): T1 sequence (P03372 1-595)

MCF-7 cells = assay: BrdU incorporation proliferation assay in MCF-7 cells transfected with MP1 expression vector or empty vector; assay type: cell-based, human; settings: ligand for 48 h, BrdU for the final 5 h, FIG. 6
Method: The ER has both genomic and non-genomic activities, and its activity in transcription assays may not fully represent its ability to regulate cell proliferation. […] To label proliferating cells, BrdU (which is incorporated into DNA during DNA synthesis) was added to the cultures for the final 5 h of incubation. Cells were then fixed, labeled with a fluorescent anti-BrdU antibody, and the percentage of cells that incorporated BrdU (ie, were proliferating) was determined.

CO[C@H]1[C@@H](O)[C@H](C)C[C@H](C)/C=C/C=C/C=C(\C)[C@@H](c2c[nH]c3c(C)cccc23)C[C@@H]2CC[C@@H](C)[C@@](O)(O2)C(=O)C(=O)N2CCCC[C@H]2C(=O)O[C@H]([C@H](C)C[C@@H]2CC[C@@H](O)[C@H](OC)C2)C[C@H](O)[C@H](C)/C=C(\C)[C@H]1O [AP21967]
Flag-ER expression from the transfected gene (Flag-ER; cells containing 3' Flag-ER): highly induced | endogenous ER expression (Flag-ER; vector containing cells): did not alter this expression

C[C@]12CC[C@@H]3c4ccc(O)cc4C[C@@H](CCCCCCCCC[S+]([O-])CCCC(F)(F)C(F)(F)F)[C@H]3[C@@H]1CC[C@@H]2O (some centres unmarked) [ICI, ICI 182,780]
co-precipitation of MP1 with ER (ER/MP1 complex formation) (ER/MP1 complex): not | effect of MP1 co-transfection on ER activity (ERE-Luc) in the presence of ligand (ER): not

CC/C(=C(\c1ccccc1)c1ccc(OCCN(C)C)cc1)c1ccccc1 [Tam, tamoxifen]
effect of MP1 overexpression on proliferation (percentage of cells that incorporated BrdU) in the presence of ligand (MCF-7 cells): dramatically increases proliferation
